Measured values taken from patent publication US20090304674A1, “METHODS FOR TREATING DISEASE BY REGULATING CLL CELL SURVIVAL” (priority 2005, published 2009).

Tests used:
Type in all cases: cell-based, human
[1] = tested on: p44/42 MAPK (ERK1/2) in CLL B cells; assay: Immunoblot of ERK1/2 phosphorylation in CLL B cells; conditions: SDF-1α 200 ng/ml
Protocol: (§1) Cell lysates were prepared with RIPA buffer (10 mM Tris (pH 7.4), 150 mM NaCl, 1% Triton x 100, 1% deoxycholate, 0.1% SDS, 5 mM EDTA), containing 1 mM PMSF, 0.28 TIU/ml aprotinin, 50 μg/ml leupeptin, 1 mM benzamidine, 0.7 μg/ml pepstatin. Lysates were normalized for total protein (20 μg), subjected to SDS-PAGE (4-15% gradient gels, Bio-Rad, Hercules, Calif.) and immunoblot assay. We incubated the blots with secondary antibodies that were conjugated with horseradish peroxidase. Blots then were prepared for enhanced chemiluminescence (ECL) detection system (Amersham, Little Chalfont, Buckinghamshire, UK) and subsequent autoradiography with Super RX film (Fuji, Tokyo, Japan). The mouse mAb against APRIL (APRIL8) was from Alexis Biochemicals. The mouse mAb against inhibitor of kappa B-α (IκκBα was from Imgenex (San Diego, Calif.). The antibodies against anti-phosho-MAP kinase Erk1/2 and anti-MAP kinase Erk1/2-CT were purchased from Upstate Biotechnology. Antibodies against AKT or phospho-AKT (Ser473) were from Cell Signaling (Beverly, Mass.). Rabbit polyclonal antibodies (Mcl-1, Bcl-2, and Bax) were raised against synthetic peptides.21 Also primary antibodies included β-actin (Sigma Immunochemicals, St Louis, Mo.). Anti-p52 and anti-p65 antibodies were purchased from Upstate Biotechnology.

AKT in CLL B cells = assay: Immunoblot of AKT (Ser473) phosphorylation in CLL B cells; conditions: SDF-1α 200 ng/ml
Protocol: as §1

Mcl-1 in CLL B cells = assay: Immunoblot of Mcl-1 expression in CLL B cells; conditions: short-term culture of isolated CLL B cells
Protocol: as §1

[2] = tested on: NF-κB2/p100 pathway in CLL B cells; assay: Immunoblot of alternative NF-κB2 pathway activation (p100 to p52, p52 nuclear translocation) in CLL B cells; conditions: concentrations that promote CLL cell survival; rhBAFF 50 ng/ml, rhAPRIL 500 ng/ml, 24 hours
Protocol: as §1
For fractionation experiments, cells were collected by centrifugation and washed with PBS. The cell pellet containing 5×10^6 cells was suspended in 100 μl of hypotonic buffer (50 mM Tris (pH7.4), 5 mM EDTA, 10 mM NaCl, 0.05% NP-40, 1 mM PMSF, 10 μg/ml Aprotinin, 10 μg/ml Leupeptin, 10 μg/ml Pepstatin, 10 mM β-Glycerophosphate, 1 mM Na-Vanadate, 1 mM NaF). After 10 minutes the lysate was spun and the supernatant was collected as cytoplasmic lysates. The pellet was washed 5 times in hypotonic buffer containing 0.1% NP-40. The remaining pellet was suspended in 100 μl RIPA buffer containing protease and phosphatase inhibitors. […]

[3] = tested on: canonical NF-κB1 pathway in CLL B cells; assay: Immunoblot of canonical NF-κB1 pathway activation (IκBα degradation/phosphorylation, p65 nuclear translocation) in CLL B cells; conditions: concentrations that promote CLL cell survival; rhBAFF 50 ng/ml, rhAPRIL 500 ng/ml
Protocol: as §1
For fractionation experiments, cells were collected by centrifugation and washed with PBS. The cell pellet containing 5×10^6 cells was suspended in 100 μl of hypotonic buffer (50 mM Tris (pH7.4), 5 mM EDTA, 10 mM NaCl, 0.05% NP-40, 1 mM PMSF, 10 μg/ml Aprotinin, 10 μg/ml Leupeptin, 10 μg/ml Pepstatin, 10 mM β-Glycerophosphate, 1 mM Na-Vanadate, 1 mM NaF). After 10 minutes the lysate was spun and the supernatant was collected as cytoplasmic lysates. The pellet was washed 5 times in hypotonic buffer containing 0.1% NP-40. The remaining pellet was suspended in 100 μl RIPA buffer containing protease and phosphatase inhibitors. After an appropriate amount of 3× sample buffer (200 mM Tris (pH 6.8), 30 mM EDTA, 30% Glycerol, 6% SDS) was added, the sample was boiled for 10 minutes, spun for 10 minutes and the supernatant was recovered as nucleus lysates. Anti-NF kappa B p52 and p65 were purchased from Upstate Biotechnology. Anti-SP-1 was purchased from Santa Cruz Biotechnology (Santa Cruz, Calif.).
Cell lysates were prepared with radioimmunoprecipitation assay (RIPA) buffer (10 mM Tris [pH 7.4], 150 mM NaCl, 1% Triton X-100, 0.1% deoxycholate, 0.1% SDS, 5 mM EDTA), containing 1× complete protease inhibitor cocktail (Roche diagnostics), 1 mM sodium fluoride (NaF), and 1 mM sodium vanadate (Na3VO4). Lysates were normalized for total protein (25 μg) and subjected to SDS-PAGE (4-15% gradient gels, Bio-Rad, Hercules, Calif.) and immunoblot assay. We incubated the blots with secondary antibodies that were conjugated with horseradish peroxidase. Blots then were prepared for enhanced chemiluminescence (ECL) detection system (Amersham, Little Chalfont, United Kingdom) and subsequent autoradiography with Super RX film (Fuji, Tokyo, Japan).
For fractionation experiments, cells were collected by centrifugation and washed with PBS. The cell pellet containing 5×10^6 cells was suspended in 100 μl of hypotonic buffer (50 mM Tris [pH7.4], 5 mM EDTA, 10 mM NaCl, 0.05% Nonidet P40 [NP-40]), containing 1× complete protease inhibitor cocktail, 1 mM NaF, and 1 mM Na3VO4. After 10 minutes, the lysate was spun and the supernatant was collected as cytoplasmic lysates. […]

[4] = tested on: Bcl-2, Bax, Bcl-xL in CLL B cells; assay: Immunoblot of Bcl-2, Bax, Bcl-xL expression in CLL B cells; conditions: short-term culture of isolated CLL B cells
Protocol: as §1

[5] = 3 minutes, 4F at 50 nM or 500 nM
[6] = 3 or 10 minutes, rhBAFF 50 ng/ml

Substance | block of SDF-1α-induced phosphorylation of ERK1/2 [1, 5] | block of SDF-1α-induced phosphorylation of AKT at Ser473 (AKT in CLL B cells; [5]) | induction of Mcl-1 expression in CLL B cells (Mcl-1 in CLL B cells) | activation of NF-κB2 (processing of p100 to p52, translocation of p52 to the nucleus) [2] | activation of classical/canonical NF-κB pathway (IκBα degradation, p65 translocation to nucleus) [3] | induction of phosphorylation of ERK1/2 [1, 6] | induction of phosphorylation/activation of AKT (Ser473) (AKT in CLL B cells; [6]) | changes in levels of Bcl-2, Bax, or Bcl-xL [4]
4F-benzoyl-TE14011 [reference compound] | could be blocked | could be blocked |  |  |  |  |  | 
SDF-1α |  |  | could not induce isolated CLL B cells to express higher levels of Mcl-1 | did not observe activation of NF-κB2 | did not have this activity | induced phosphorylation of ERK1/2 | induced phosphorylation of AKT at Ser473 | did not observe significant changes
